Test results: PubChem BioAssay AID1963832 (Molecular Pharmacology Branch, DTP, NCI, 2024)

Test system: 885724-159-R-J1-PDC complex spheroid viability
Test: Anticancer human tumor 885724-159-R-J1-PDC patient-derived pancreatic adenocarcinoma cell line growth inhibition [POLQ]
Conditions: for IC50: curve of first compound; for viability, T/C: stronger effect = lower value
Summary of the method: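 Growth inhibition in 3D: complex spheroids (tumor PDC, HUVEC, MSC) treated with POLQ inhibitor combinations; where Cmax unknown, highest tested concentration 10 microM, except SN-38 at 1 microM.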

[1] = second compound 0.0316 µM, first compound 0.0316 µM
[2] = second compound 0.0316 µM, first compound 0.1 µM
[3] = second compound 0.0316 µM, first compound 0.316 µM
[4] = second compound 0.0316 µM, first compound 1 µM
[5] = second compound 0.0316 µM, first compound 3.16 µM
[6] = second compound 0.0316 µM, first compound 10 µM
[7] = second compound 0.1 µM, first compound 0.0316 µM
[8] = second compound 0.1 µM, first compound 0.1 µM
[9] = second compound 0.1 µM, first compound 0.316 µM
[10] = second compound 0.1 µM, first compound 1 µM
[11] = second compound 0.1 µM, first compound 3.16 µM
[12] = second compound 0.1 µM, first compound 10 µM
[13] = second compound 0.316 µM, first compound 0.0316 µM
[14] = second compound 0.316 µM, first compound 0.1 µM
[15] = second compound 0.316 µM, first compound 0.316 µM
[16] = second compound 0.316 µM, first compound 1 µM
[17] = second compound 0.316 µM, first compound 3.16 µM
[18] = second compound 0.316 µM, first compound 10 µM
[19] = second compound 1 µM, first compound 0.0316 µM
[20] = second compound 1 µM, first compound 0.1 µM
[21] = second compound 1 µM, first compound 0.316 µM
[22] = second compound 1 µM, first compound 1 µM
[23] = second compound 1 µM, first compound 3.16 µM
[24] = second compound 1 µM, first compound 10 µM
[25] = second compound 3.16 µM, first compound 0.0316 µM
[26] = second compound 3.16 µM, first compound 0.1 µM
[27] = second compound 3.16 µM, first compound 0.316 µM
[28] = second compound 3.16 µM, first compound 1 µM
[29] = second compound 3.16 µM, first compound 3.16 µM
[30] = second compound 3.16 µM, first compound 10 µM
[31] = second compound 10 µM, first compound 0.0316 µM
[32] = second compound 10 µM, first compound 0.1 µM
[33] = second compound 10 µM, first compound 0.316 µM
[34] = second compound 10 µM, first compound 1 µM
[35] = second compound 10 µM, first compound 3.16 µM
[36] = second compound 10 µM, first compound 10 µM
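Also: spheroids exposed to compounds for 7 days.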

`CC(=O)O[C@H]1C(=O)[C@@]2(C)[C@H]([C@H](OC(=O)c3ccccc3)[C@]3(O)C[C@H](OC(=O)[C@H](O)[C@@H](NC(=O)c4ccccc4)c4ccccc4)C(C)=C1C3(C)C)[C@]1(OC(C)=O)CO[C@@H]1C[C@@H]2O` + COC1C(OC(N)=O)C(O)C(Oc2ccc3c(O)c(NC(=O)c4ccc(O)c(CC=C(C)C)c4)c(=O)oc3c2C)OC1(C)C was tested, and the IC50 (second compound 0.0316 µM) was > 3 µM, the IC50 (second compound 0.1 µM) was > 3 µM and the IC50 (second compound 0.316 µM) was > 3 µM. For the same compound, the IC50 (second compound 1 µM) was > 3 µM, the IC50 (second compound 3.16 µM) was > 3 µM and the IC50 (second compound 10 µM) was > 3 µM. It also gave a viability, T/C (second compound 0.0316 µM, first compound 0.00949 µM) of 57.8%, a viability, T/C (second compound 0.0316 µM, first compound 0.03 µM) of 60.2% and a viability, T/C (second compound 0.0316 µM, first compound 0.0949 µM) of 55.6%. The viability, T/C (second compound 0.0316 µM, first compound 0.3 µM) was 59%, the viability, T/C (second compound 0.0316 µM, first compound 0.949 µM) was 59.9% and the viability, T/C (second compound 0.0316 µM, first compound 3 µM) was 61.6%. It also gave a viability, T/C (second compound 0.1 µM, first compound 0.00949 µM) of 66.1%, a viability, T/C (second compound 0.1 µM, first compound 0.03 µM) of 59.6% and a viability, T/C (second compound 0.1 µM, first compound 0.0949 µM) of 56.8%. It also gave a viability, T/C (second compound 0.1 µM, first compound 0.3 µM) of 66.1%, a viability, T/C (second compound 0.1 µM, first compound 0.949 µM) of 64.5% and a viability, T/C (second compound 0.1 µM, first compound 3 µM) of 56.8%. It also gave a viability, T/C (second compound 0.316 µM, first compound 0.00949 µM) of 64%, a viability, T/C (second compound 0.316 µM, first compound 0.03 µM) of 54.9% and a viability, T/C (second compound 0.316 µM, first compound 0.0949 µM) of 55.7%. It also gave a viability, T/C (second compound 0.316 µM, first compound 0.3 µM) of 56.6%, a viability, T/C (second compound 0.316 µM, first compound 0.949 µM) of 61.1% and a viability, T/C (second compound 0.316 µM, first compound 3 µM) of 68.4%. The viability, T/C (second compound 1 µM, first compound 0.00949 µM) was 65.4%, the viability, T/C (second compound 1 µM, first compound 0.03 µM) was 60% and the viability, T/C (second compound 1 µM, first compound 0.0949 µM) was 57.9%. The viability, T/C (second compound 1 µM, first compound 0.3 µM) was 62.3%, the viability, T/C (second compound 1 µM, first compound 0.949 µM) was 53.1% and the viability, T/C (second compound 1 µM, first compound 3 µM) was 56%. It also gave a viability, T/C (second compound 3.16 µM, first compound 0.00949 µM) of 64.3%, a viability, T/C (second compound 3.16 µM, first compound 0.03 µM) of 57.6% and a viability, T/C (second compound 3.16 µM, first compound 0.0949 µM) of 52.9%. The viability, T/C (second compound 3.16 µM, first compound 0.3 µM) was 56.3%, the viability, T/C (second compound 3.16 µM, first compound 0.949 µM) was 60.3% and the viability, T/C (second compound 3.16 µM, first compound 3 µM) was 66.5%. The viability, T/C (second compound 10 µM, first compound 0.00949 µM) was 60.6%, the viability, T/C (second compound 10 µM, first compound 0.03 µM) was 51.5% and the viability, T/C (second compound 10 µM, first compound 0.0949 µM) was 59.3%. It also gave a viability, T/C (second compound 10 µM, first compound 0.3 µM) of 56.5%, a viability, T/C (second compound 10 µM, first compound 0.949 µM) of 67.2% and a viability, T/C (second compound 10 µM, first compound 3 µM) of 67.4%.

`COc1cc(C2c3cc4c(cc3C(OC3OC5COC(C)OC5C(O)C3O)C3COC(=O)C23)OCO4)cc(OC)c1O` (stereo unspecified) + COC1C(OC(N)=O)C(O)C(Oc2ccc3c(O)c(NC(=O)c4ccc(O)c(CC=C(C)C)c4)c(=O)oc3c2C)OC1(C)C gave an IC50 (second compound 0.0316 µM) of 5.34 µM, an IC50 (second compound 0.1 µM) of 3.9 µM and an IC50 (second compound 0.316 µM) of 4 µM. The IC50 (second compound 1 µM) was 4.58 µM, the IC50 (second compound 3.16 µM) was 5.93 µM and the IC50 (second compound 10 µM) was 3.8 µM. For the same compound, the viability, T/C [1] was 96.7%, the viability, T/C [2] was 81.8% and the viability, T/C [3] was 67.8%. It also gave a viability, T/C [4] of 61.6%, a viability, T/C [5] of 56.2% and a viability, T/C [6] of 44.4%. It also gave a viability, T/C [7] of 93.7%, a viability, T/C [8] of 85.5% and a viability, T/C [9] of 72%. The viability, T/C [10] was 59.2%, the viability, T/C [11] was 53.8% and the viability, T/C [12] was 43.1%. For the same compound, the viability, T/C [13] was 92%, the viability, T/C [14] was 84.4% and the viability, T/C [15] was 75.7%. For the same compound, the viability, T/C [16] was 59.8%, the viability, T/C [17] was 54% and the viability, T/C [18] was 41.9%. The viability, T/C [19] was 100%, the viability, T/C [20] was 87.5% and the viability, T/C [21] was 71.3%. For the same compound, the viability, T/C [22] was 58.9%, the viability, T/C [23] was 58.2% and the viability, T/C [24] was 42.3%. The viability, T/C [25] was 92.5%, the viability, T/C [26] was 81.4% and the viability, T/C [27] was 69.8%. The viability, T/C [28] was 64.1%, the viability, T/C [29] was 53.5% and the viability, T/C [30] was 46.5%. It also gave a viability, T/C [31] of 90.6%, a viability, T/C [32] of 80% and a viability, T/C [33] of 64.7%. The viability, T/C [34] was 60.5%, the viability, T/C [35] was 54.4% and the viability, T/C [36] was 42.1%.

`COc1cccc2c1C(=O)c1c(O)c3c(c(O)c1C2=O)CC(O)(C(=O)CO)CC3OC1CC(N)C(O)C(C)O1` (stereo unspecified) + COC1C(OC(N)=O)C(O)C(Oc2ccc3c(O)c(NC(=O)c4ccc(O)c(CC=C(C)C)c4)c(=O)oc3c2C)OC1(C)C showed an IC50 (second compound 0.0316 µM) of 0.208 µM, an IC50 (second compound 0.1 µM) of 0.204 µM and an IC50 (second compound 0.316 µM) of 0.201 µM. For the same compound, the IC50 (second compound 1 µM) was 0.192 µM, the IC50 (second compound 3.16 µM) was 0.197 µM and the IC50 (second compound 10 µM) was 0.196 µM. The viability, T/C [1] was 71.6%, the viability, T/C [2] was 91.5% and the viability, T/C [3] was 31.9%. For the same compound, the viability, T/C [4] was 11.6%, the viability, T/C [5] was 6% and the viability, T/C [6] was 7.47%. The viability, T/C [7] was 71%, the viability, T/C [8] was 89.4% and the viability, T/C [9] was 31.5%. The viability, T/C [10] was 10.3%, the viability, T/C [11] was 5.36% and the viability, T/C [12] was 7.37%. It also gave a viability, T/C [13] of 71%, a viability, T/C [14] of 93.2% and a viability, T/C [15] of 29%. The viability, T/C [16] was 9.53%, the viability, T/C [17] was 5.31% and the viability, T/C [18] was 7.84%. For the same compound, the viability, T/C [19] was 65%, the viability, T/C [20] was 90.5% and the viability, T/C [21] was 28.9%. For the same compound, the viability, T/C [22] was 10.3%, the viability, T/C [23] was 5.98% and the viability, T/C [24] was 7.87%. The viability, T/C [25] was 69.5%, the viability, T/C [26] was 92% and the viability, T/C [27] was 28.7%. It also gave a viability, T/C [28] of 7.45%, a viability, T/C [29] of 6% and a viability, T/C [30] of 7.69%. The viability, T/C [31] was 64.2%, the viability, T/C [32] was 85.7% and the viability, T/C [33] was 32.2%. The viability, T/C [34] was 7.9%, the viability, T/C [35] was 6.39% and the viability, T/C [36] was 7.8%.
